The target in assay [1] is Receptor-interacting serine/threonine-protein kinase 2 (Homo sapiens, UniProt O43353). As to the kind of experiment: Selectivity interaction (Upstate Kinase Profiler service (Millipore)) EUB0000056c RIPK2. Particulars: at 1 µM.
In assay [2] the target is MAP kinase-activated protein kinase 3 (Homo sapiens) (UniProt Q16644). As to the kind of experiment: Selectivity interaction (ProQinase) EUB0000171b MAPKAPK3.
In assay [3] the target is T1, Serine/threonine-protein kinase 17A (Homo sapiens) (UniProt Q9UEE5).
T1 sequence (whole entry): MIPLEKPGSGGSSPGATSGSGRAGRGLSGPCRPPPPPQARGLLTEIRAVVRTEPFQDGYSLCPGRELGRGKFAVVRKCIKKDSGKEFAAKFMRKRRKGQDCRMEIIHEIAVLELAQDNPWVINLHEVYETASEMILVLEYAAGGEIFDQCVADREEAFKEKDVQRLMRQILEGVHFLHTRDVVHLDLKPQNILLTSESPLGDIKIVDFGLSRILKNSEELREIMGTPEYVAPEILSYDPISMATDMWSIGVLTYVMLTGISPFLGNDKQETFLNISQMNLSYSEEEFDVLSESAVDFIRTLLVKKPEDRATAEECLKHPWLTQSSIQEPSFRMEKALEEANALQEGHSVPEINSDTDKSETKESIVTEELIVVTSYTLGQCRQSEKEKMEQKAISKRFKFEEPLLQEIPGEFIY
As to the kind of experiment: Selectivity interaction (Kinase panel (DSF assay)) EUB0001558a STK17A.

For assay [4], the target named is Epithelial discoidin domain-containing receptor 1 (Homo sapiens) (UniProt Q08345). As to the kind of experiment: Selectivity interaction (Ambit KINOMEscan and KiNATiv profiling in Jurkat cells) EUB0000090b DDR1. Type of assay: cell-based. Particulars: at 1 µM.
Assay [5] addresses Ribosomal protein S6 kinase alpha-4 (Homo sapiens) (UniProt O75676). As to the kind of experiment: Selectivity interaction (Ambit KINOMEscan and KiNATiv profiling in Jurkat cells) EUB0000090b RPS6KA4. It counts as cell-based. Particulars: at 1 µM.
Assay [6] addresses Tyrosine-protein kinase ABL1 (Homo sapiens, UniProt P00519). As to the kind of experiment: Selectivity interaction (KinomeScan (DiscoverX)) EUB0001049a ABL1. Particulars: at 1 µM.
Assay [7] has as its target T2, Tyrosine-protein kinase Tec (Homo sapiens) (UniProt P42680).
T2 sequence (whole entry): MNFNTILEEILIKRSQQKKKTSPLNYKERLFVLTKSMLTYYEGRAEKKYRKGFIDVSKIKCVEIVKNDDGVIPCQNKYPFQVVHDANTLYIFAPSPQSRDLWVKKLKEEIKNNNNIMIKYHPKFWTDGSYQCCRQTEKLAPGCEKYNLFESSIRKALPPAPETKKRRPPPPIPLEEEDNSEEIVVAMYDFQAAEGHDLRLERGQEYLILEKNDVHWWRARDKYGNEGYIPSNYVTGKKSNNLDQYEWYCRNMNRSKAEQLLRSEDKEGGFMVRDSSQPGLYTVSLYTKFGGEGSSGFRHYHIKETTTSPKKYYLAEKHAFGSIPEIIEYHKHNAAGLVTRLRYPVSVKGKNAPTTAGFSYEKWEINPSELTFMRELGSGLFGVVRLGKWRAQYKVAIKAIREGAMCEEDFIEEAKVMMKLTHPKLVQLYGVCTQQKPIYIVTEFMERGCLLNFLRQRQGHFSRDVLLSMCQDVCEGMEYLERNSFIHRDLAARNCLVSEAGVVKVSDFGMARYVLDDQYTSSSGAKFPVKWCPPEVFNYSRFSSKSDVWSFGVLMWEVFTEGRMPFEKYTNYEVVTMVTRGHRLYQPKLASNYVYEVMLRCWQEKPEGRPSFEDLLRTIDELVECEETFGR
As to the kind of experiment: Selectivity interaction (KinomeScan (DiscoverX)) EUB0001049a TEC. Particulars: at 1 µM.

The target in assay [8] is Serine/threonine-protein kinase Nek7 (Homo sapiens) (UniProt Q8TDX7). As to the kind of experiment: Selectivity interaction (KinomeScan (DiscoverX)) EUB0000695a NEK7. Particulars: at 100 nM.
The target in assay [9] is Macrophage colony-stimulating factor 1 receptor (Homo sapiens) (UniProt P07333). As to the kind of experiment: Selectivity interaction (KinomeScan (DiscoverX)) EUB0000045b CSF1R.
Assay [10] addresses Tyrosine-protein kinase HCK (Homo sapiens) (UniProt P08631). As to the kind of experiment: Selectivity interaction (KinomeScan (DiscoverX)) EUB0000666a HCK. Particulars: at 10 µM.
Assay [11] deals with LIM domain kinase 2 (Homo sapiens) (UniProt P53671). As to the kind of experiment: Selectivity interaction (LanthaScreen Eu Kinase Binding Assay) EUB0001632a LIMK2. Particulars: at 10 µM.
Assay [12] concerns the target NT-3 growth factor receptor (Homo sapiens, UniProt Q16288). As to the kind of experiment: Selectivity interaction (SelectScreen profiling (Invitrogen)) EUB0000607a NTRK3. Particulars: at 2 µM.
Assay [13] addresses Serine/threonine-protein kinase haspin (Homo sapiens, UniProt Q8TF76).
Assay [14] deals with Death-associated protein kinase 3 (Homo sapiens) (UniProt O43293). As to the kind of experiment: Selectivity interaction (KinomeScan (DiscoverX)) EUB0000229b DAPK3. Particulars: at 10 µM.
The target of assay [15] is Serine/threonine-protein kinase SIK2 (Homo sapiens) (UniProt Q9H0K1). As to the kind of experiment: Selectivity interaction (KinomeScan (DiscoverX)) EUB0000229b SIK2. Particulars: at 10 µM.
Assay [16] deals with Beta-2 adrenergic receptor (Homo sapiens, UniProt P07550). As to the kind of experiment: Selectivity interaction (Beta 2 adrenergic receptor assay, human recombinant ) EUB0000877a ADRB2.
In assay [17] the target is Bromodomain-containing protein 3 (Homo sapiens) (UniProt Q15059). As to the kind of experiment: Selectivity interaction (Human bromodomain panel (DSF assay)) EUB0000233b BRD3.
Assay [18] has as its target 5'-AMP-activated protein kinase catalytic subunit alpha-2 (Homo sapiens) (UniProt P54646). As to the kind of experiment: Selectivity interaction (KinomeScan (DiscoverX)) EUB0000311b PRKAA2. Particulars: at 1 µM.
The target of assay [19] is T3, Calcium/calmodulin-dependent protein kinase type IV (Homo sapiens) (UniProt Q16566).
T3 sequence (whole entry): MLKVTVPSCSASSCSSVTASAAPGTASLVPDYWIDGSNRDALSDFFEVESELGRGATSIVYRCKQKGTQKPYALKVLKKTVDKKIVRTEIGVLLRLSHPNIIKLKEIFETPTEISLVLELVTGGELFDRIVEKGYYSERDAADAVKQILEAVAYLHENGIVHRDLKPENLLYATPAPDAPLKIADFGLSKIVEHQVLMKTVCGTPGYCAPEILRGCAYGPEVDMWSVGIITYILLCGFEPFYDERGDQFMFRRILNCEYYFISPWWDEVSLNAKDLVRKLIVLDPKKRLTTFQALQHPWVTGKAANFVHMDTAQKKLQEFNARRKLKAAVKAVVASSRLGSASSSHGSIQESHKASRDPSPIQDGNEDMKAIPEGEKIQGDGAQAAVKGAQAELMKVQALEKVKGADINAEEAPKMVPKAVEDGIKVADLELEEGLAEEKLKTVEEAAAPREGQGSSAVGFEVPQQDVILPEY
As to the kind of experiment: Selectivity interaction (Kinase panel (KiNativ target engagement assay in Jurkat cells)) EUB0001635a CAMK4. Type of assay: cell-based. Particulars: Selectivity number of off-targets 0.0, Selectivity number of targets 233.0, Source Knowledge https://www.sciencedirect.com/science/article/pii/S2451945619300674?via%3Dihub, at 1 µM.

pIC50: −log10 of the molar value.

Chain of Macrophage colony-stimulating factor 1 receptor (Homo sapiens) (P07333 whole entry): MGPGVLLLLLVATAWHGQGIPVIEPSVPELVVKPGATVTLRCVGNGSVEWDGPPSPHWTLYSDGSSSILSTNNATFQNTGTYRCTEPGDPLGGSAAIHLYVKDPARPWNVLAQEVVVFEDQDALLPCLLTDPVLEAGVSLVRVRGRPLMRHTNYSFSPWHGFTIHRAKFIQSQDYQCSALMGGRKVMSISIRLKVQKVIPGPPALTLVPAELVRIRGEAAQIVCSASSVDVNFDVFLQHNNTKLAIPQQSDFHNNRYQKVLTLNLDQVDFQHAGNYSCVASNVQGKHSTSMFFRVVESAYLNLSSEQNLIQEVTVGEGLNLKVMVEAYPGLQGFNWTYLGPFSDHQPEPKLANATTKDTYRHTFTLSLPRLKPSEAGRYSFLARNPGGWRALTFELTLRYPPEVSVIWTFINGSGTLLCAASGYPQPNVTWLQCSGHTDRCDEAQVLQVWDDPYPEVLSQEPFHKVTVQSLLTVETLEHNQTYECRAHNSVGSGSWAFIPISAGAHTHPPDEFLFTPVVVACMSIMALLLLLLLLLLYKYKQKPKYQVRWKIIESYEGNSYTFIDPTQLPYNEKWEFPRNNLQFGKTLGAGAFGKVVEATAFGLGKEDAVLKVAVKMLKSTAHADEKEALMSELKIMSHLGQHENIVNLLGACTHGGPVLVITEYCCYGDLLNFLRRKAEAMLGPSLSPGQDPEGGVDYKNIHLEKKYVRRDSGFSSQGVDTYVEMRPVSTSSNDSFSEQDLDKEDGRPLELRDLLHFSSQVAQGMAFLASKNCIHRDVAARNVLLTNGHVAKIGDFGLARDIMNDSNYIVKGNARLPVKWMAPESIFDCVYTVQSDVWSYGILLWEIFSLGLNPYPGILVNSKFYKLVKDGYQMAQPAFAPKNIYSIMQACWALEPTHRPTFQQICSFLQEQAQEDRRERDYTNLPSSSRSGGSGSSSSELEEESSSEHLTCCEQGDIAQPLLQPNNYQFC
Chain of MAP kinase-activated protein kinase 3 (Homo sapiens) (Q16644 whole entry, looked up): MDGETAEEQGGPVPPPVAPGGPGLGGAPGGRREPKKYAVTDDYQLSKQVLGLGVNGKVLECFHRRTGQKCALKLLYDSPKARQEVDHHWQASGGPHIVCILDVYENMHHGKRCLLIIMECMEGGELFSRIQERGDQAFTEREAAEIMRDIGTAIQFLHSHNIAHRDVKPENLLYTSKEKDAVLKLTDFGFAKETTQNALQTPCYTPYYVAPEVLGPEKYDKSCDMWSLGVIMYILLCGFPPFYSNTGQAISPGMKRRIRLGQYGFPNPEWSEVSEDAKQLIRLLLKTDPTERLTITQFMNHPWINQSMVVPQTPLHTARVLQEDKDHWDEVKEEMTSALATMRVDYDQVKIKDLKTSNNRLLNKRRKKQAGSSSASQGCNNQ
Chain of Death-associated protein kinase 3 (Homo sapiens) (O43293 whole entry, looked up): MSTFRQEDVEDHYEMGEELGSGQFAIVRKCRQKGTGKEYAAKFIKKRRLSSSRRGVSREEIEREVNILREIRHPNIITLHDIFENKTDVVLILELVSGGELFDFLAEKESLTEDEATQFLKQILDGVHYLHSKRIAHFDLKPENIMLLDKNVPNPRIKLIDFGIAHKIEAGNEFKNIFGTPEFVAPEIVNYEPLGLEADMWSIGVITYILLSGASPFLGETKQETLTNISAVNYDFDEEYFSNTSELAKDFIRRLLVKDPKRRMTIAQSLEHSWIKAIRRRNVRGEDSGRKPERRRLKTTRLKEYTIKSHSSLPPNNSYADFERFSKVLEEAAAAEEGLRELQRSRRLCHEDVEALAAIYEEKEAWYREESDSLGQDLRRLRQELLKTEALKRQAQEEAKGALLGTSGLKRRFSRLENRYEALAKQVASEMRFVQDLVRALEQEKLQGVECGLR
Chain of Tyrosine-protein kinase ABL1 (P00519 whole entry): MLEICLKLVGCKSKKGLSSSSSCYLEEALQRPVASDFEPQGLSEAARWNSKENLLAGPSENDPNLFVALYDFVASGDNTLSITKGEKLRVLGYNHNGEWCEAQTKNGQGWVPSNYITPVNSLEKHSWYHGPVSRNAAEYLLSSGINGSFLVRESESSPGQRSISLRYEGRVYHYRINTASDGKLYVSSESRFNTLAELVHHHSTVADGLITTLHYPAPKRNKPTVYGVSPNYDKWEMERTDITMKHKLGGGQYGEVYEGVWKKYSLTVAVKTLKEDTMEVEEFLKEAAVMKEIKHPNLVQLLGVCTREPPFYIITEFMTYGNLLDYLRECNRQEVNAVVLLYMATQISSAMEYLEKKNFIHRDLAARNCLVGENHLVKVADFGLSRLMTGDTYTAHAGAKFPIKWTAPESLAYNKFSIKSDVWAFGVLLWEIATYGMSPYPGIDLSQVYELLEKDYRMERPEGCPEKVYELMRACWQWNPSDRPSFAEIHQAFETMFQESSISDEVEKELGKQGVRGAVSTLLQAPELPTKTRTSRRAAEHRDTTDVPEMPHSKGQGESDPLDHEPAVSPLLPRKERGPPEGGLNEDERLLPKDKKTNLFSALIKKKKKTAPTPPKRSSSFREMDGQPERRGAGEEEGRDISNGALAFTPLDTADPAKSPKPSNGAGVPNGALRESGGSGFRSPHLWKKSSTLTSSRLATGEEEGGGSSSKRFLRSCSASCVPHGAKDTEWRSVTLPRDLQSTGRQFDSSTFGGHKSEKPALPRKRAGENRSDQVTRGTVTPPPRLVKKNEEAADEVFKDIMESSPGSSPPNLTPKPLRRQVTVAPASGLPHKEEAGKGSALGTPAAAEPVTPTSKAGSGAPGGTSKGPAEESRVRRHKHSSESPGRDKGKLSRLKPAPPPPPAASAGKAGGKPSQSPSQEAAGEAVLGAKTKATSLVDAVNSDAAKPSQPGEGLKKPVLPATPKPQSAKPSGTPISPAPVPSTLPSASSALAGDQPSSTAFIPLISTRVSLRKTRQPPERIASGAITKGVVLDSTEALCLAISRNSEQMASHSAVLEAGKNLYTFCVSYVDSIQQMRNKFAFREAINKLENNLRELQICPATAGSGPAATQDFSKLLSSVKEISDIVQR
Chain of Beta-2 adrenergic receptor (P07550 whole entry): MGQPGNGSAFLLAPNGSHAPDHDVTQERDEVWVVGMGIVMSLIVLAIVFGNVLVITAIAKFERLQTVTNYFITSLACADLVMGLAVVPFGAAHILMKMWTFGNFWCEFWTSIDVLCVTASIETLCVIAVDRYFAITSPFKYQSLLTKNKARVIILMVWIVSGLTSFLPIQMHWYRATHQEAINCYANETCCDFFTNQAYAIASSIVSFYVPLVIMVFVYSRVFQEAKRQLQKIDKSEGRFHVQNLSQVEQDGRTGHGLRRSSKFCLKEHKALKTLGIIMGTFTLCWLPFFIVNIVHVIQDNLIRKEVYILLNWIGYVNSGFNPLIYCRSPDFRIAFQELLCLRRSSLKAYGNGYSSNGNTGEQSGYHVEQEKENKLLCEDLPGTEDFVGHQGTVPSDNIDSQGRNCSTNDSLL
Chain of Epithelial discoidin domain-containing receptor 1 (Homo sapiens) (Q08345 whole entry, the tested form may be a part): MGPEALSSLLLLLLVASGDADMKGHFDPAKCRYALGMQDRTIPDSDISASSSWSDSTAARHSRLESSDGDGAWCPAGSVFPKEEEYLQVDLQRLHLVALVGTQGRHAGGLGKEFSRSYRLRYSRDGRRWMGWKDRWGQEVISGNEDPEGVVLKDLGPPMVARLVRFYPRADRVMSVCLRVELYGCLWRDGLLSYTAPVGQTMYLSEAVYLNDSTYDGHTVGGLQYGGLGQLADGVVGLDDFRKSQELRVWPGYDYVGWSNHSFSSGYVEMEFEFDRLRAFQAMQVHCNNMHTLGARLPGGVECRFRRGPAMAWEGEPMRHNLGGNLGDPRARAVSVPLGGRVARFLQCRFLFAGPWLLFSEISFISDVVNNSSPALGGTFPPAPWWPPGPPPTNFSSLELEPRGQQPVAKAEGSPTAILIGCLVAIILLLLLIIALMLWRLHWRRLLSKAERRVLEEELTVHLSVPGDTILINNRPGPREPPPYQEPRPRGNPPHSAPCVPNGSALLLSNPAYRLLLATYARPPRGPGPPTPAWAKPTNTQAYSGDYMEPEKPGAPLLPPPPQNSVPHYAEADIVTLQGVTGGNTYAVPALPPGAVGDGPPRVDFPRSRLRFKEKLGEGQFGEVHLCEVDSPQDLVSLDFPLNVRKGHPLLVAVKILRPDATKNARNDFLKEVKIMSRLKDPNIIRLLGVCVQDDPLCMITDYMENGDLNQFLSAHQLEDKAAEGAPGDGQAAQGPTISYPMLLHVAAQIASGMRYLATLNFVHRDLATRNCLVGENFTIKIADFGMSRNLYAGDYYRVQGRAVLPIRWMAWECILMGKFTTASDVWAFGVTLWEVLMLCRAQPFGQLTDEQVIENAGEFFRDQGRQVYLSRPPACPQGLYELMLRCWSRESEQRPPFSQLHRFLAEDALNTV
Chain of 5'-AMP-activated protein kinase catalytic subunit alpha-2 (Homo sapiens) (P54646 whole entry, looked up): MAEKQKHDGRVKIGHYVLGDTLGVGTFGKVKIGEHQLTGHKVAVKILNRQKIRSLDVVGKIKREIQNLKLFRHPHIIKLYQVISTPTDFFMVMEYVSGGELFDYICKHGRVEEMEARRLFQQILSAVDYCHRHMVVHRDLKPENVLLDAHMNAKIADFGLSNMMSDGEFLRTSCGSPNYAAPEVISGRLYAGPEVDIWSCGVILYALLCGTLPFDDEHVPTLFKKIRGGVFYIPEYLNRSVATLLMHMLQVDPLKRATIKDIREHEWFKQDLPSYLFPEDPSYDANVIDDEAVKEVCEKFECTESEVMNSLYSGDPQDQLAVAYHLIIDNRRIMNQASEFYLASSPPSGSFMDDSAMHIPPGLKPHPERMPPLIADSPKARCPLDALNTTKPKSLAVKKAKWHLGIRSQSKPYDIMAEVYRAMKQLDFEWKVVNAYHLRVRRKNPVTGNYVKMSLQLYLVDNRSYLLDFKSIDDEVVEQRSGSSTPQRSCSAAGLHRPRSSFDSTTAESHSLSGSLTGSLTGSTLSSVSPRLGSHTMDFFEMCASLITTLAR

For `Cc1ccc(-c2ccc3c(ccc4sc5c(c43)NC[C@@H](C)NC5=O)n2)cn1`, the % of inhibition in assay [1] was determined as 74%. Take `C=CC(=O)Nc1cccc(C(=O)Nc2ccc(Nc3cc(-c4[nH]c(SC)nc4C)ccn3)cc2)c1`: the figures for the % of control in assay [2] (at 1 µM) and in assay [2] (at 5 µM) were 100% and 65%, respectively. In turn, `CC(C)(O)[C@H](F)CN1Cc2cc(NC(=O)c3cnn4cccnc34)c(N3CCOCC3)cc2C1=O` registered a dTM in assay [3] of 0.9 K. As to `CN(C)C/C=C/C(=O)Nc1ccc(C(=O)N2CCCC(Nc3ncc(Cl)c(-c4c[nH]c5ccccc45)n3)C2)cc1` (stereo unspecified), the % of control in assay [4] and in assay [5] was 93% in each case. For the compound `COc1cc(Nc2nc(C)cc(-c3cnn4nc(OC)ccc34)n2)cc(C(F)(F)F)c1`, the results for the % of control in [6] and in assay [7] were 84% and 78%, respectively. In [8], `Cc1cc(F)c(C(=O)Nc2cccc(-c3nncn3C(C)C)n2)cc1-n1cnc(C2CC2)c1` came in with a % of control of 100%.

Regarding `C=CC(=O)Nc1cc(-n2c(=O)ccc3cnc4ccc(-c5ccc(NS(C)(=O)=O)cc5)cc4c32)ccc1C`, the % of control in assay [9] (at 1 µM) was determined as 94%; in assay [9] (at 10 µM), 87%. Regarding `O=C(NOC[C@H](O)CO)c1ccc(F)c(F)c1Nc1ccc(I)cc1F`, the % of control in assay [10] was found to be 100%. For `Cn1cc(-n2cnc3c(NCc4nc5cc(Cl)c(Cl)cc5[nH]4)nc(N4CCOCC4)nc32)cn1`, the % of inhibition in assay [11] is -10.5%. Regarding `CNC(=O)Nc1ccc(-c2nc(N3CC4CCC(C3)O4)c3cnn(C4CCC5(CC4)OCCO5)c3n2)cc1`, the % of inhibition in [12] worked out at 5%.

As to `CCc1cccc(CC)c1NC(=O)c1nn(C)c2c1CCc1cnc(Nc3ccc(C(=O)NC4CCN(C)CC4)cc3OC(F)(F)F)nc1-2`, the pIC50 in [13] was under 5.00. As to `COc1cc(N(C)c2ccnc3ccc(C(F)(F)F)cc23)cc(OC)c1OC`, the % binding stood at 91% in assay [14] and 98% in assay [15]. Turning to `CCC(=O)N1CC[C@H](Nc2ncnc3c2CN(c2cnc(OC)c(C(F)(F)F)c2)CC3)C1` [LENIOLISIB], in [16], the negative logarithm of the IC50 (pIC50) is under 4.52. Turning to `CN(C)CCCOc1ccc(-c2cc(NCCCn3cccn3)nc(S(C)(=O)=O)n2)cc1`, the dTM in [17] is under 2 K.

Compound `CCc1ccccc1C(=O)Nc1n[nH]c2c(C)c(F)c(C3C(C#N)=C(C)N(C)C(C)=C3C#N)cc12` [BAY-3827] gave a % of control in assay [18] of 0%. Turning to `C=CC(=O)Nc1ccc(C(=O)Nc2[nH]nc3c2CN(C(=O)N[C@H](CN(C)C)c2ccccc2)C3(C)C)cc1`, the % of engagement in assay [19] is -6.4%.
